Assay results: patent publication US20060062758A1, “Tight junction modulator peptide PN159 for enhanced mucosal delivery of therapeutic compounds” (Nastech Pharmaceutical Comapny Inc., priority 2004, published 2006)

Legend:
[1] = Permeation kinetics across the in vitro epithelial tissue model; settings: human, pH 5, Papp; for Papp at 120 min, 40 mg/mL: galantamine 40 mg/mL pH 5.0, calcitonin 1 mg/mL pH 3.5, PTH1-34 1 mg/mL pH 4.5
Protocol: (§1) The EpiAirway™ system was developed by MatTek Corp (Ashland, Mass.) as a model of the pseudostratified epithelium lining the respiratory tract. The epithelial cells are grown on porous membrane-bottomed cell culture inserts at an air-liquid interface, which results in differentiation of the cells to a highly polarized morphology. The apical surface is ciliated with a microvillous ultrastructure and the epithelium produces mucus (the presence of mucin has been confirmed by immunoblotting). The inserts have a diameter of 0.875 cm, providing a surface area of 0.6 cm^2. The cells are plated onto the inserts at the factory approximately three weeks before shipping. One “kit” consists of 24 units.
(§2) A. A “kit” of 24 EpiAirway™ units can routinely be employed for evaluating five different formulations, each of which is applied to quadruplicate wells. Each well is employed for determination of permeation kinetics (4 time points), transepithelial electrical resistance (TER). An additional set of wells is employed as controls, which are sham treated during determination of permeation kinetics, but are otherwise handled identically to the test sample-containing units for determinations of transepithelial resistance and viability.
(§3) B. In all experiments, the mucosal delivery formulation to be studied is applied to the apical surface of each unit in a volume of 100 μL, which is sufficient to cover the entire apical surface. An appropriate volume of the test formulation at the concentration applied to the apical surface (no more than 100 μL is generally needed) is set aside for subsequent determination of concentration of the active material by ELISA or other designated assay.
(§4) D. In order to minimize potential sources of error and avoid any formation of concentration gradients, the units are transferred from one 0.9 mL-containing well to another at each time point in the study. These transfers are made at the following time points, based on a zero time at which the 100 μL volume of test material was applied to the apical surface: 15 minutes, 30 minutes, 60 minutes, and 120 minutes.
(§5) F. At the completion of each time point, the medium is removed from the well from which each unit was transferred, and aliquotted into two tubes (one tube receives 700 μL and the other 200 μL) for determination of the concentration of permeated test material and, in the event that the test material is cytotoxic, for release of the cytosolic enzyme, lactate dehydrogenase, from the epithelium. These samples are kept in the refrigerator if the assays are to be conducted within 24 hours, or the samples are subaliquotted and kept frozen at −80° C. until thawed once for assays. Repeated freeze-thaw cycles are to be avoided.
(§6) EIA kit (p/n S-1178(EIAH6101) was purchased from Peninsula Laboratories Inc. (Division of BACHEM, San Carlos, Calif., 800-922-1516). 17×120 mm polypropylene conical tubes (p/n 352097, Falcon, Franklin Lakes, N.J.) were used for all sample preparations. Eight standards were used for PTH quantitation. The rest of the assay procedure was the same as the kit inserts.
(§7) The instant study was designed to evaluate the effect of PN159 itself or in combination with additional permeation enhancers on PTH permeation. The PN159 concentrations evaluated are 25, 50, and 100 μM. The additional permeation enhancers are 45 mg/ml M-β-CD, 1 mg/ml DDPC, and 1 mg/ml EDTA. Sorbitol was used as a tonicifier (146-190 mM) to adjust the osmolarity of formulations to 220 mOsm/kg. The formulation pH was fixed at 4.5. PTH was chosen as a model peptide in this example. 2 mg/ml PTH was combined with PN159 with or without additional permeation enhancers. The combination was tested using an in vitro epithelial tissue model to monitor PTH permeation, transepithelial electrical resistance (TER), and the cytotoxicity of the formulation by LDH assay.
(§8) The effect of PN159 on permeation of MC-4RA was evaluated in this study.

[2] = system: EpiAirway™ Cell Membrane (mucosal epithelial cell layer); assay: as above
Protocol: as §1, §2, §3, §4, §5, §6, §7, §8

[3] = system: EpiAirway™ Cell Membrane (mucosal epithelial cell layer); assay: Transepithelial electrical resistance (TER), EpiAirway in vitro epithelial tissue model; assay type: cell-based; settings: Example 2, PTH formulation study, applied to apical side
From the text: One “kit” consists of 24 units.
A. Respiratory airway epithelial cells form tight junctions in vivo as well as in vitro, and thereby restrict the flow of solutes across the tissue. These junctions confer a transepithelial resistance of several hundred ohms×cm^2 in excised airway tissues. In the MatTek EpiAirway™ units, the transepithelial electrical resistance (TER) is reported by the manufacturer to be routinely around 1000 ohms×cm^2. […] The porous membrane-bottomed units without cells, conversely, provide only minimal transmembrane resistance (approximately 5-20 ohms×cm^2).
B. Accurate determinations of TER require that the electrodes of the ohmmeter be positioned over a significant surface area above and below the membrane, and that the distance of the electrodes from the membrane be reproducibly controlled. The method for TER determination recommended by MatTek and employed for all experiments herein employs an “EVOM”™ epithelial voltohmmeter and an “ENDOHM”™ tissue resistance measurement chamber from World Precision Instruments, Inc., Sarasota, Fla.
D. Determinations of TER are made with 1.5 mL of PBS in the chamber and 350 μL of PBS in the membrane-bottomed unit being measured. The top electrode is adjusted to a position just above the membrane of a unit containing no cells (but containing 350 μL of PBS) and then fixed to ensure reproducible positioning. The resistance of a cell-free unit is typically 5-20 ohms×cm^2 (“background resistance”).
G. The unit is gently blotted free of excess PBS on its exterior surface only before being placed into the chamber (containing a fresh 1.5 mL aliquot of PBS). An aliquot of 350 μL PBS is added to the unit before the top electrode is placed on the chamber and the TER is read on the EVOM meter.
I. The units are read in the following sequence: all sham-treated controls, followed by all formulation-treated samples, followed by a second TER reading of each of the sham-treated controls. All TER values are reported as a function of the surface area of the tissue.
TER was calculated as: TER=(R1−Rb)×A Where R1 is resistance of the insert with a membrane, Rb is the resistance of the blank insert, and A is the area of the membrane (0.6 cm^2). The effect of pharmaceutical formulations comprising intranasal delivery-enhancing agents, for example, permeabilizing peptides as measured by TER across the EpiAirway™ Cell Membrane (mucosal epithelial cell layer). Permeabilizing peptides are applied to the EpiAirway™ Cell Membrane at a concentration of 1.0 mM. A decrease in TER value relative to the control value (control=approximately 1000 ohms-cm^2; normalized to 100.) indicates a decrease in cell membrane resistance and an increase in mucosal epithelial cell permeability.
(§9) The formulation pH was fixed at 4.5.

[4] = system: EpiAirway™ Cell Membrane (mucosal epithelial cell layer); assay: LDH assay (cytotoxicity), in vitro epithelial tissue model; assay type: cell-based; settings: Example 2, PTH study; PN159 25-100 μM
Protocol: Repeated freeze-thaw cycles are to be avoided.
The amount of cell death was assayed by measuring the loss of lactate dehydrogenase (LDH) from the cells using a CytoTox 96 Cytoxicity Assay Kit (Promega Corp., Madison, Wis.). Fifty microliters of sample was loaded into a 96-well assay plates. Fresh, cell-free culture medium was used as a blank. 50 μl of substrate solution was added to each well and the plates incubated for 30 minutes at room temperature in the dark. Following incubation, 50 μl of stop solution was added to each well and the plates read on an optical density plate reader at 490 nm.
as §9

Compound | Papp at 120 min, 40 mg/mL ([1]; [PN159] 0 μM, PYY3-36 1 mg/mL, pH was 5.0) [×10⁻⁶ cm/s] | Papp at 120 min, 40 mg/mL ([1]; [PN159] 25 μM, PYY3-36 1 mg/mL pH 7.0) [×10⁻⁶ cm/s] | Papp at 120 min, 40 mg/mL ([1]; [PN159] 50 μM) [×10⁻⁶ cm/s] | Papp at 120 min, 40 mg/mL ([1]; [PN159] 100 μM, PYY3-36 1 mg/mL pH 7.0) [×10⁻⁶ cm/s] | Papp at 120 min, 40 mg/ml ([1]; in the presence of 25 nM PN159 (as printed in text)) [×10⁻⁶ cm/s] | Papp at 120 min, 40 mg/ml ([1]; in the presence of 50 nM PN159 (as printed in text)) [×10⁻⁶ cm/s] | Papp at 120 min, 40 mg/ml ([1]; in the presence of 100 nM PN159 (as printed in text)) [×10⁻⁶ cm/s] | Papp ([2]; [PN159] 0 μM, galantamine 40 mg/mL pH 5.0, calcitonin 1 mg/mL pH 3.5, PTH1-34 1 mg/mL pH 4.5, PYY3-36 1 mg/mL, pH was 5.0) [×10⁻⁶ cm/s] | increase in Papp ([2]; drug in the presence of PN159 vs drug alone) | TER reduction (in words) [3] | cytotoxicity (LDH) [4]
COc1ccc2c3c1O[C@H]1C[C@@H](O)C=C[C@@]31CCN(C)C2 [Galantamine, galantamine, reference compound] | ~2.1 | 5.1 | 6.2 | 7.2 | 5.1 | 6.2 | 7.2 | 2.1 | 2.5-3.5 fold |  | 
Triton X [reference compound] |  |  |  |  |  |  |  |  |  | significant TER reduction | significant cytotoxicity
